Results as given in patent US7956069B2, “Compounds” (AstraZeneca AB, priority 2006, dated 2011).
pEC50: −log10 of the molar value.

How the values were obtained:
Format in all cases: cell-based
[1] = biological target: T1, hM1 (human Muscarinic receptor subtype 1) (Homo sapiens, UniProt P11229); test: Human M1 calcium mobilization FLIPR assay; conditions: CHO cells expressing hM1, Ca2+ release
T1 construct: expressed in transfected cells; host or cells: CHO cells (Chinese hamster ovary cells, ATCC)
T1 sequence (P11229 1-460): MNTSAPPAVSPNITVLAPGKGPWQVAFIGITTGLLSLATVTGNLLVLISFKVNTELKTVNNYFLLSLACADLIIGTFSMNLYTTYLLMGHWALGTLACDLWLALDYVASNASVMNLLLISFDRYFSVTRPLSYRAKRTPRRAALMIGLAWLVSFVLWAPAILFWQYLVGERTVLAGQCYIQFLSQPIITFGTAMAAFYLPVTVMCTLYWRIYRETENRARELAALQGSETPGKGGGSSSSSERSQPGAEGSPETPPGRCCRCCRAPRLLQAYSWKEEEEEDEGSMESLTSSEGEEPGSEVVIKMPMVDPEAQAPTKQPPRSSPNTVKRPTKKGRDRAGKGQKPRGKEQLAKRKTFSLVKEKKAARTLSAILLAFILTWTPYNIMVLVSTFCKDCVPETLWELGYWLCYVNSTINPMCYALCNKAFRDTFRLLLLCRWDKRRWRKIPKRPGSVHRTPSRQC
Procedure: (§1) Biological Evaluation Human M1, Rat M1, Human M3 and Human M5 Calcium Mobilization FLIPR™ Assay
(§2) The compound activity in the present invention (EC50 or IC50) was measured using a 384 plate-based imaging assay that monitors drug induced intracellular Ca^2+ release in whole cells. Activation of hM1 (human Muscarinic receptor subtype 1, gene bank access NM_000738), rM1 (rat Muscarinic receptor subtype 1, gene bank access NM_080773), hM3 (human Muscarinic receptor subtype 3, gene bank access NM_000740NM_000740) and hM5 (human Muscarinic receptor subtype 5, gene bank access NM_0121258), receptors expressed in CHO cells (Chinese hamster ovary cells, ATCC) was quantified in a Molecular Devices FLIPR II™ instrument as an increase in fluorescent signal. Inhibition of hM3 and hM5 by compounds was determined by the decrease in fluorescent signal in response to 20 nM carbachol activation.
(§3) CHO cells were plated in 384-black polylysine coated plate (Costar) at 8000 cells/well/50 μl for 24 hours or 4000 cells/well for 48 hours in a humidified incubator (5% CO2 and 37° C.) in DMEM/F12 medium without selection agent. Prior to the experiment the cell culture medium was removed from the plates by inversion. A loading solution of 30 μl of Hank's balanced salt solution, 10 mM Hepes and 2.5 mM Probenicid at Ph 7.4 (Cat no. 311-520-VL, Wisent) with 2 μM calcium indicator dye (FLUO-3AM, Molecular Probes F14202) was added to each well. Plates were incubated at 37° C. for 60 minutes prior to start the experiment. The incubation was terminated by washing the cells four times in assay buffer, leaving a residual 25 μl buffer per well. Cell plates were then transferred to the FLIPR, ready for compound additions.
(§4) The day of experiment, carbachol and compounds were diluted in three-fold concentration range (10 points serial dilution) for addition by FLIPR instrument. For all calcium assays, a baseline reading was taken for 30 seconds followed by the addition of 12.5 μl (25 μl for hM1 and rM1) of compounds, resulting in a total well volume of 37.5 μl (50 μl for hM1 and rM1). Data were collected every 1.6 seconds for 300 seconds. For hM3 and hM5 an additional 12.5 μl of carbachol (20 nM final) was added at 300 seconds. After this addition of carbachol (producing a final volume of 50 μl), the FLIPR continued to collect data every 2 seconds for 240 seconds. The fluorescence emission was read using filter 1 (emission 520-545 nm) by the FLIPR on board CCD camera.
(§5) Calcium mobilization output data were calculated as the maximal relative fluorescence unit (RFU) minus the minal value for both compound and agonist reading frame (except for hM1 and rM1 using only the maximal RFU). Data were analyzed using sigmoidal fits of a non-linear curve-fitting program (XLfit version 5.0.6 from ID Business Solutions Limited, Guildford, UK). All EC50 and IC50 values are reported as arithmetic means±standard error of mean of ‘n’ independent experiments.

[2] = biological target: T2, hM3 (human Muscarinic receptor subtype 3) (Homo sapiens, UniProt P20309); test: Human M3 calcium mobilization FLIPR assay; conditions: CHO cells expressing hM3, Ca2+ release
T2 construct: expressed in transfected cells; host or cells: CHO cells (Chinese hamster ovary cells, ATCC)
T2 sequence (P20309 whole entry): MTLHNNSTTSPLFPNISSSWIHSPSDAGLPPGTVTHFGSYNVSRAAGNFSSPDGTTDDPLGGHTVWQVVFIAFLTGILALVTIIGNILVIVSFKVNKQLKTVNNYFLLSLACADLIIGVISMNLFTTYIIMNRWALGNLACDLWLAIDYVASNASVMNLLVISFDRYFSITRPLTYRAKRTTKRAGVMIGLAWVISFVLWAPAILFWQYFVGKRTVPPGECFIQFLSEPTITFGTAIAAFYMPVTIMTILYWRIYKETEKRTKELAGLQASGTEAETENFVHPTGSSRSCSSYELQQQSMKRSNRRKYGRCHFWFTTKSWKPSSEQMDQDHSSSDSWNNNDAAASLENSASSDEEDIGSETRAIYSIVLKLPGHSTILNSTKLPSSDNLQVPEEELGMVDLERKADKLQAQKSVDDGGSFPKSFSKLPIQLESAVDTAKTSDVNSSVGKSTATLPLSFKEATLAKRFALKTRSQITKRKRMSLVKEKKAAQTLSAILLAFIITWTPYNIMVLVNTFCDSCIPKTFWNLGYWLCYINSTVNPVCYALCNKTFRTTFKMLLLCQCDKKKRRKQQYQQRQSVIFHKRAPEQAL
Procedure: as §1, §2, §3, §4, §5

[3] = biological target: T3, hM5 (human Muscarinic receptor subtype 5) (Homo sapiens, UniProt P08912); test: Human M5 calcium mobilization FLIPR assay; conditions: CHO cells expressing hM5, Ca2+ release
T3 construct: expressed in transfected cells; host or cells: CHO cells (Chinese hamster ovary cells, ATCC)
T3 sequence (P08912 1-532): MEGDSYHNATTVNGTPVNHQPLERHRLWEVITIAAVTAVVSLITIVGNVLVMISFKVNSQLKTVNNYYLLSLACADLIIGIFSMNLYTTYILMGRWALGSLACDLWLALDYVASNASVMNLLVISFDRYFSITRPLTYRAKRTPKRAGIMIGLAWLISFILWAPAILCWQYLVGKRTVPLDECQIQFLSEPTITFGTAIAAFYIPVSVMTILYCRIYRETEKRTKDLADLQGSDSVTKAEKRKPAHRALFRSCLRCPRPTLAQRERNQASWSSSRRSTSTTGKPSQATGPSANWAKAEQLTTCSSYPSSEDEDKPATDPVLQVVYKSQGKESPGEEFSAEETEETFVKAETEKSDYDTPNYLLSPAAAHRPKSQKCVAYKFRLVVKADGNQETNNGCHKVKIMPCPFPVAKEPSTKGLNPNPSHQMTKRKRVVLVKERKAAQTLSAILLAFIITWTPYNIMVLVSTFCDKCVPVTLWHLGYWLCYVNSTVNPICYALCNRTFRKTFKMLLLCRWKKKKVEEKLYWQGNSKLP
Procedure: as §1, §2, §3, §4, §5

pEC50 [1]	pEC50 [2]	pEC50 [3]	SMILES
7.09			O=C(C1CC1(F)F)N1CCC(N2CCC(N3C(=O)N[C@H]4CCCC[C@@H]43)CC2)CC1 (some centres unmarked)
6.00			CCNC(=O)N1CCC(N2CCC(N3C(=O)N[C@@H]4CCCC[C@H]43)CC2)C1 (mixture of isomers)
6.52			O=C(C1CCCC1)N1CCC(N2CCC(N3C(=O)N[C@@H]4CCCC[C@@H]43)CC2)CC1
7.23			CCOC(=O)N1CCC(N2CCC(N3C(=O)C[C@H]4CCCC[C@@H]43)CC2)C1 (single isomer, unassigned)
6.22			O=C(c1ccccc1)N1CCC(N2CCC(N3C(=O)N[C@@H]4CCCC[C@H]43)CC2)CC1
7.03	< 4.40	< 4.40	Cc1ccccc1C(=O)N1CCC(N2CCC(N3C(=O)C[C@H]4CCCC[C@@H]43)CC2)CC1
5.92	< 4.40	< 4.40	CCOC(=O)N1CCC(N2CCC(N3C(=O)N(C(C)C)[C@H]4CCCC[C@@H]43)CC2)CC1
